According to publication PMC3673896, “3,4-dihydroxyphenyl acetic acid and (+)-epoxydon isolated from marine algae-derived microorganisms induce down regulation of epidermal growth factor activated mitogenic signaling cascade in Hela cells” (Cancer Cell International, 2013):
pIC50: −log10 of the molar value.

Target: EGF receptor tyrosine kinase (EGFR) (Homo sapiens, UniProt P00533)
Assay: AlphaScreen P-Tyr-100 kinase assay with poly[Glu:Tyr] ([…]) substrate
Type: biochemical

Chain of EGF receptor tyrosine kinase (EGFR) (P00533 669-1210 limits assumed): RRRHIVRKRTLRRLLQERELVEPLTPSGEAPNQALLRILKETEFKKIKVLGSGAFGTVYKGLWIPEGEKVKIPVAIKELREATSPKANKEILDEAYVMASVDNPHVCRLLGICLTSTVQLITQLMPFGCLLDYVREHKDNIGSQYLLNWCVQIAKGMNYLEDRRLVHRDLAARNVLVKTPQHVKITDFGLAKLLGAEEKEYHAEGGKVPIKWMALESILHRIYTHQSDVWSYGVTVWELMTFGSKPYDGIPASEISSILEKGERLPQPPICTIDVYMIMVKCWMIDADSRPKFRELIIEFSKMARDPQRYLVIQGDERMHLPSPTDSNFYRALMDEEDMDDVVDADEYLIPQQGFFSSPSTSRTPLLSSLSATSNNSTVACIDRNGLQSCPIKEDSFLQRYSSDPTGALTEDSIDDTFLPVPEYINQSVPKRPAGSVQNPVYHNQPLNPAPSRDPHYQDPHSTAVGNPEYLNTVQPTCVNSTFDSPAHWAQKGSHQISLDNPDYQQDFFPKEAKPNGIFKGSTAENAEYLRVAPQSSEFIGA

pIC50	Structure (SMILES)
5.42	O=C1C(CO)=C[C@@H](O)[C@H]2O[C@@H]12 [(+)-epoxydon]
4.78	O=C(O)Cc1ccc(O)c(O)c1 [3,4-dihydroxyphenyl acetic acid]
